In US20060020042A1, “Memantine for the treatment of mild and mild to moderate Alzheimer's disease” (Forest Laboratories, Inc., priority 2004, published 2006):

Experiments:
[1] = tested on: outpatients with mild-to-moderate Alzheimer's disease; experiment: ADAS-cog in randomized, double-blind, placebo-controlled study; type: in vivo, human; conditions: for ADAS-cog Non-Responder, number of patients / ADAS-cog Responder (change from baseline <= -4), number of patients / ADAS-cog Difference (memantine minus placebo, LS mean): Week 24, ITT; for ADAS-cog Difference (memantine minus placebo, LS mean): 20 mg/day
Source text: The present invention is based on results from a randomized, double-blind, placebo-controlled, multi-center, parallel-group study comparing memantine to placebo in outpatients diagnosed with probable AD according to […] criteria. Severity of mild to moderate was established using the Mini-Mental State Examination (MMSE) score (≧10 and ≦22; 0 is the lowest score and 30 is the highest score). In the study of the present invention, there were approximately 400 patients enrolled across 42 centers. Evaluation of primary efficacy was achieved by Alzheimer's Disease Assessment Scale-cognitive subscale (ADAS-cog) and the Clinician's Interview-Based Impression of Change including caregiver information (CIBIC-plus). Secondary efficacy was determined using Alzheimer's disease Cooperative Study-Activities of Daily Living (ADCS-ADL) and Neuropsychiatric Inventory (NPI) criteria. The ADAS-cog comprises an 11-item scale that is used to assess the severity of selected areas of cognitive impairment (memory, language, orientation, reason and praxis). Scores range from 0 to 70 with lower scores indicating lesser severity and a score of 70 representing the worst cognitive impairment. Its use in assessing and following changes in patients with mild to moderate Alzheimer's disease has been extensively validated. The ADAS-cog was administered at each clinic visit starting with the Baseline visit and at the end of weeks 4, 8, 12, 18 and 24 (or upon early termination). The study consisted of 1-2 weeks of single-blind placebo treatment followed by 24 weeks of double-blind treatment. Results were evaluated over seven clinical visits; at initial screening, baseline, and the end of weeks 4, 8, 12, 18 and 24. The population of patients who received at least one dose of double-blind memantine, and completed at least one post-baseline efficacy evaluation of either the ADAS-cog or the CIBIC-plus is designated the “intent-to-treat” (ITT) population. The population of randomized patients who received at least one dose of double-blind study medication is designated the “safety population”. The randomized population designates all patients randomized into the study. This study was conducted as a fixed-dose study. All patients assigned to the memantine group received an initial dose of 5 mg per day; the dose was titrated in 5 mg weekly increments to a final dose of 20 mg/day (administered as two 5 mg tablets twice a day). Study drug was provided as blister packs containing masked study medication such that placebo and memantine tablets were visually identical, and all patients received four tablets of study medication daily (in combinations of memantine 5 mg tablets and matching placebo tablets). Transient dose adjustments were permitted between weeks 3 and 8 for patients experiencing dose-limiting adverse events. However, all patients were required to receive the target dose of 20 mg/day by the end of week 8. Patients not able to tolerate the target dose by week 8 were discontinued from the study. Statistical analysis. For primary efficacy measurements, (e.g., change from Baseline (visit 2) to Week 24 in the total ADAS-cog scores from the ITT population) the comparison between memantine and placebo were performed using two-way analysis of covariance (ANCOVA) with treatment group and center as the two factors, and the baseline scores as covariate. Both the Last Observation Carried Forward (LOCF) imputation approach and the Observed Cases (OC) approach were performed at week 24. Results of ANCOVA were summarized using least square (LS) means for each treatment group with corresponding standard error (SE), the between-treatment (2-24 week) difference in the least square means with corresponding 95% confidence interval, and the between-treatment p-value corresponds to the SAS Type III sum of squares.

[2] = tested on: mild-to-moderate AD subjects; experiment: Snodgrass picture naming activation task during PET; type: in vivo, human
Procedure: Snodgrass Picture Naming Task. […] In the present invention, all patients who were subjected to PET scanning were evaluated during imaging using the Snodgrass picture naming activation task, The use of a task during the FDG uptake was used to image increases in the hippocampus and temporal lobe. This Snodgrass Picture Naming activation task was sensitive to object naming, which is impaired in mild to moderate AD. The Snodgrass picture naming activation task and performance analysis was based, in part, on the speed of identification and articulation of the name that corresponds to a set of 260 pictures (Snodgrass and Vanderwart, J. Experimental Psychology: Human Learning and Memory 1980; 6(2): 174-215). The pictures are black-and-white line drawings executed according to a set of rules that provide consistency of pictorial representation. The pictures were standardized on four variables of central relevance to memory and cognitive processing: […]

Compound: CC12CC3CC(C)(C1)CC(N)(C3)C2 [Memantine, 1-amino-3,5-dimethyladamantane]
- ADAS-cog Non-Responder, number of patients ([1]; LOCF analysis): 158/148
- ADAS-cog Responder (change from baseline <= -4), number of patients ([1]; LOCF analysis): 40/47
- ADAS-cog Difference (memantine minus placebo, LS mean) ([1]; LOCF analysis, p=0.003): −1.9
- ADAS-cog Non-Responder, number of patients ([1]; OC analysis): 129/126
- ADAS-cog Responder (change from baseline <= -4), number of patients ([1]; OC analysis): 33/34
- ADAS-cog Difference (memantine minus placebo, LS mean) ([1]; OC analysis, p=0.130): −1.1
- ADAS-cog LS mean change ([1]; week 8, LOCF, placebo 0.2, p 0.003): −1.2
- ADAS-cog LS mean change ([1]; week 8, OC, placebo 0.2, p=0.006): −1.1
- ADAS-cog LS mean change ([1]; week 12, LOCF, placebo -0.1, p=0.009): −1.4
- difference in Snodgrass performance between the two treatment groups ([2]; memantine vs placebo): no significant difference
- Snodgrass picture naming activation task performance ([2]; memantine-treated subjects during PET): better than chance
